Measured values as given in article PMC8497620, “Structure and inhibition of Cryptococcus neoformans sterylglucosidase to develop antifungal agents” (Nature Communications, 2021).
Where “and” joins values, the source holds several entries; their conditions need not be identical. Identical values can stand only once. Like-named read-outs stand apart in the source and are kept apart here.

Columns and labels:
Cerezyme = target: T1, Cerezyme (Homo sapiens, UniProt P04062, R534H); test: Cerezyme activity on mammalian C18-glucosylceramide in presence of hits (LC-MS); type: biochemical; conditions: for C18-ceramide: hits at 100 µM, 10 µg Cerezyme, 10 µg mammalian C18-glucosylceramide, pH 5.5, 37°C, 3 hours; for inhibition of human Cerezyme: physiological mammalian glucosylceramide substrate, 100 µM compound
T1 construct: purchased Genzyme Corporation, Cambridge, MA, USA
T1 sequence (P04062 40-536 R534H): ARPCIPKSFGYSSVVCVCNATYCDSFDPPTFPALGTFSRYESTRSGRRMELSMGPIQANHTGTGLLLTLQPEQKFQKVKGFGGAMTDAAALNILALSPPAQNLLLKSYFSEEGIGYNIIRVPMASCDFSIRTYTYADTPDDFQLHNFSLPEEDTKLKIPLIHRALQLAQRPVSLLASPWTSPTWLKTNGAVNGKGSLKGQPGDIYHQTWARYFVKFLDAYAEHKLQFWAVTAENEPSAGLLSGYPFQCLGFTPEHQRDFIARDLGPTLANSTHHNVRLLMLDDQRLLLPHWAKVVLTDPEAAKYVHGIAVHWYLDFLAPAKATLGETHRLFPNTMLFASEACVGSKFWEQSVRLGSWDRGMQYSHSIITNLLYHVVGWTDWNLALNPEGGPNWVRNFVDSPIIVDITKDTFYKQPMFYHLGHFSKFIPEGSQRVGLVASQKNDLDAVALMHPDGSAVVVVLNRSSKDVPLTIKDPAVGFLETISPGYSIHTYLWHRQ
Description: Supplementary figure 8. Cerezyme is not inhibited by its 1, 9 and 15. 10 µg of Cerezyme was added to 10 µg of mammalian C18-glucosylceramide in the presence of 100 µM of compound hits. The reactions were performed in 50 mM sodium acetate buffer pH5.5 and incubated at 37°C for 3 hours. The amount of C18-ceramide formed was quantified by LC-MS. There was no significant difference between the control (no drug) and samples with 100 µM of hits 1, 9 and 15 (p>0.05). Statistical analysis by one-way ANOVA, Dunnett's Multiple Comparison Test. Data represent the mean +/- SD of n=3 independent experiments.

C. neoformans Sgl1 = C. neoformans Sgl1 (Cryptococcus neoformans var. grubii, UniProt J9W473); test: Sgl1 inhibition with native substrate erg-glc; type: biochemical; conditions: substrate ergosterol 3β-D-glucoside (1 mol%); for inhibition at 10 µM: read-out: % Sgl1 Inhibition, 10 µM compound; for inhibition at 100 µM: read-out: % Sgl1 Inhibition, 100 µM compound; for inhibition at 0.1 µM: read-out: % Sgl1 Inhibition, 0.1 µM compound; for inhibition at 1 µM: read-out: % Sgl1 Inhibition, 1 µM compound
Description: To validate the selective inhibition of Sgl1 by these compounds, we first tested their ability to inhibit hydrolysis of erg-glc in vitro.
A 50 μL volume of Cn Sgl1 wild type and 50 μL of mixed micelles of lipid and Triton X-100 in 50 mM Bis-Tris buffer with 150 mM NaCl, 5 mM βME, and 5 mM DTT were mixed and incubated at 37 °C for 10 min (erg-glc, Avanti Polar Lipids) and 1 h (C6-NBD-glcCer, Matreya). For the substrate erg-glc the amount of protein was 5 ng. 150 ng protein was used for reactions with C6-NBD-GlcCer. After the incubation period, each reaction was quenched with a 2:1 chloroform:methanol solution and the organic phase was collected and dried. Then, the lipid content was resuspended in 50 μL methanol and applied to HPLC (Agilent Technologies). Total erg-glc and ergosterol was detected using absorbance at 282 nm on a C-8 column with a flow rate of 0.5 ml/min in methanol/water 90:10 ratio buffered with 1 mM ammonium formate and 0.2% formic acid. A 85:15 ratio of the same eluent was used for C6-NBD-GlcCer and C6-NBD-ceramide monitoring the fluorescence at 470/530 nm excitation/emission. The total area of product was normalized by the total area of its respective substrate.

C. neoformans H99 [1] = type: cell-based, Cryptococcus neoformans; conditions: for Ergosterol 3β-D-glucoside accumulation (pmol/ Inorganic phosphate): 100 µM; for accumulation of erg-glc, fold less than the mutant Cn Δsgl1: 500 µM, 24 h; for erg-glc accumulation compared to untreated Cn H99 control: 24 h of treatment
Description: C. neoformans H99 was cultivated in yeast nitrogen base (YNB) broth for 24 h at 37 °C with shaking. […] […] After that, the resultant pellets were re-counted and used for lipid extraction. Thenceforth the total lipid was extracted as described previously by Singh et al.[55]. The dried samples were resuspended in chloroform/methanol 2:1 ratio for LC-MS analysis. A standard erg-glc from Avanti Polar Lipids was used as a control for the calibration curve. Data were normalized to the total inorganic phosphate content in the sample.

C. neoformans H99 [2] = test: Mouse model of cryptococcosis, intraperitoneal treatment (CBA/J mice); type: in vivo, Cryptococcus neoformans; conditions: 10 mg/kg/day intraperitoneally; for CFU recovered from the brain: 14 days after infection; for lung CFU compared to vehicle-treated mice: days 3, 6, 9, 14; for Lung (CFU/mL): 10 mg/kg/day
Description: (§1) For animal studies, 4-week-old CBA/J (Envigo) female mice were used. Mouse experiments were performed in full compliance with a protocol approved by Stony Brook University (IACUC number 341588) and in compliance with the United States Animal Welfare Act (Public Law 98–198). The experiments were carried out in facilities accredited by the Association for Assessment and Accreditation of Laboratory Animal Care. Mice were divided into sets of 12 mice for each treatment or control group (4 animals per cage) kept in an animal room (temperature, 22–24 °C; relative humidity, 35–45%) with artificial 12–12 h dark/light cycle. For the experiment with intraperitoneal (i.p.) treatment, mice were infected intranasally with 10 µL of a suspension containing 1 × 10^6 C. neoformans H99 cells and subsequently treated through i.p. injection with 10 mg/kg/day of hit 1 in a final volume of 100 µL of vehicle containing 10% PEG 200 in PBS. The untreated animals received 100 µL of vehicle. For the experiment with intranasal (i.n.) treatment, mice were infected with 1 × 10^5 C. neoformans H99 cells and received i.n. treatment with hit 1 in a final volume of 10 µL. Another group received treatment with 10 mg/kg/day of fluconazole i.p. and a third group received the combined treatment of hit1 by i.n. and fluconazole by i.p. Animals receiving only vehicle i.n. were used as a control group. In both experiments, three mice of each group were euthanized at day 3, 6, 9, and 14 post infection for CFU recovery from lungs and CFU recovery from brain on day 14.

C. neoformans H99 [3] = type: in vivo, Cryptococcus neoformans; conditions: Hit 1 intranasally, fluconazole intraperitoneally; for brain dissemination / CFU recovered from the brain: 14 days; for Lung (CFU/mL): 10 mg/kg/day
Description: as §1

[4] = day 14 post infection, 10 mg/kg/day each

Chain of C. neoformans Sgl1 (J9W473 entry or part of it): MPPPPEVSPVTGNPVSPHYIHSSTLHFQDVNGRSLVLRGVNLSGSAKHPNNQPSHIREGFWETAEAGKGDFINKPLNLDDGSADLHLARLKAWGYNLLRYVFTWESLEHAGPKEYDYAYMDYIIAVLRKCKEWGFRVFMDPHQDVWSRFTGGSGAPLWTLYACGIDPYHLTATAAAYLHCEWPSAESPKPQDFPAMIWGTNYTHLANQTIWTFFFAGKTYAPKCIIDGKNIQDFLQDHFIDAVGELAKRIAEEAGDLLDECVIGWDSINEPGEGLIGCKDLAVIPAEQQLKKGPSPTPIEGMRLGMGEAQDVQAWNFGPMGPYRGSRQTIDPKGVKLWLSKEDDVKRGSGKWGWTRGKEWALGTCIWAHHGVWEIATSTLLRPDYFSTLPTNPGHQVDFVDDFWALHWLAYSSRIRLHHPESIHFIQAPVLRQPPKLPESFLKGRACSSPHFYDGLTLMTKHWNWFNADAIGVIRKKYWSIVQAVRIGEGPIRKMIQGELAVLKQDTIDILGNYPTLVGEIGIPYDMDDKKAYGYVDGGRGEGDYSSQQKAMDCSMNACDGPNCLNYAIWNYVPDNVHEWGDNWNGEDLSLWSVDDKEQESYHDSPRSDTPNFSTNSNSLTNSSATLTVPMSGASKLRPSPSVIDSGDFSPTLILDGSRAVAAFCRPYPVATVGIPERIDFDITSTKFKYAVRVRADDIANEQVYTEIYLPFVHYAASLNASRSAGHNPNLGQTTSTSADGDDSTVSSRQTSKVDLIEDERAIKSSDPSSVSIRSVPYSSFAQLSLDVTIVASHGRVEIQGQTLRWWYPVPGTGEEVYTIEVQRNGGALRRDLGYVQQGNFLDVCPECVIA

Compound	C18-ceramide (Cerezyme)	inhibition of human Cerezyme (Cerezyme)	% Sgl1 Inhibition (C. neoformans Sgl1; 0.1 µM compound, 0.1 µM)	% Sgl1 Inhibition (C. neoformans Sgl1; 10 µM compound, 10 µM) [%]	% Sgl1 Inhibition (C. neoformans Sgl1; 100 µM compound, 100 µM) [%]	inhibition at 10 µM (C. neoformans Sgl1) [%]	inhibition at 100 µM (C. neoformans Sgl1) [%]	Ergosterol 3β-D-glucoside accumulation (pmol/ Inorganic phosphate) (C. neoformans H99 [1]; 12h)	Ergosterol 3β-D-glucoside accumulation (pmol/ Inorganic phosphate) (C. neoformans H99 [1]; 24h)	accumulation of erg-glc, fold less than the mutant Cn Δsgl1 (C. neoformans H99 [1])	erg-glc accumulation compared to untreated Cn H99 control (C. neoformans H99 [1])	% Sgl1 Inhibition (C. neoformans Sgl1; 1 µM compound, 1 µM) [%]	inhibition at 0.1 µM (C. neoformans Sgl1) [%]	inhibition at 1 µM (C. neoformans Sgl1) [%]	other results
COc1cccc(-c2ncc(CN3CCC(O)(CO)CC3)s2)c1 [Hit 1]	871.82 pmol/mL and 1017.11 pmol/mL and 1021.42 pmol/mL	not inhibited	11.4412% and 5.382%	46.34	79.9522	40.5	84.8	22000000 pmol/ Inorganic phosphate and 25300000 pmol/ Inorganic phosphate and 19400000 pmol/ Inorganic phosphate	17200000 pmol/ Inorganic phosphate and 20300000 pmol/ Inorganic phosphate and 31000000 pmol/ Inorganic phosphate	about 10 fold	significant differences, especially in concentrations higher than 10 µM	–	–	–	CFU recovered from the brain (C. neoformans H99 [2]): no CFU were recovered from the brain; CFU recovered from the brain (C. neoformans H99 [2]; listed as hit 1): No yeast cells were recovered from the brain; lung CFU compared to vehicle-treated mice (C. neoformans H99 [2]): did not reduce lung colony-forming units; lung CFU compared to vehicle-treated mice (C. neoformans H99 [2]; listed as hit 1): no significant difference among untreated and treated mice; Lung (CFU/mL) (C. neoformans H99 [2]; day 3 post infection): 1200000 CFU/mL and 1520000 CFU/mL and 1480000 CFU/mL; Lung (CFU/mL) (C. neoformans H99 [2]; day 9 post infection): 25000000 CFU/mL and 14200000 CFU/mL and 19700000 CFU/mL; Brain (CFU/mL) (C. neoformans H99 [2]; day 14 post infection): 0 CFU/mL; Lung (CFU/mL) (C. neoformans H99 [2]; day 14 post infection): 28600000 CFU/mL and 29600000 CFU/mL and 22000000 CFU/mL; brain dissemination / CFU recovered from the brain (C. neoformans H99 [3]): no CFU recovered from the brain; brain dissemination / CFU recovered from the brain (C. neoformans H99 [3]; listed as hit 1): no brain dissemination of yeast cells; Lung (CFU/mL) (C. neoformans H99 [3]; day 9 post infection, 10 mg/kg/day each): 950000 CFU/mL and 1400000 CFU/mL and 780000 CFU/mL; Brain (CFU/mL) (C. neoformans H99 [3]; [4]): 0 CFU/mL; Lung (CFU/mL) (C. neoformans H99 [3]; [4]): 3880000 CFU/mL and 3700000 CFU/mL and 3100000 CFU/mL
CN1C[C@@H](NC(=O)Cc2ccc3c(c2)NC(=O)CO3)C[C@@H]1CO [Hit 9]	1045.62 pmol/mL and 1138.29 pmol/mL and 953.48 pmol/mL	not inhibited	58.2711%	98.2082	100	97.6	98.1	–	–	about 10 fold	–	93.4351	52.2	92.9	–
CC(C)c1nc(N[C@@H]2C[C@@H](CO)N(C)C2)c2cnn(C)c2n1 [Hit 15]	1251.6 pmol/mL and 855.67 pmol/mL and 1299.99 pmol/mL	not inhibited	19.6403%	95.289	–	95.2	100	28100000 pmol/ Inorganic phosphate and 30500000 pmol/ Inorganic phosphate and 41500000 pmol/ Inorganic phosphate	39400000 pmol/ Inorganic phosphate and 51600000 pmol/ Inorganic phosphate and 57400000 pmol/ Inorganic phosphate	about 10 fold	significant differences, especially in concentrations higher than 10 µM	70.0789	26.7	73.4	Ergosterol 3β-D-glucoside accumulation (pmol/ Inorganic phosphate) (C. neoformans H99 [1]; 48h): 34400000 pmol/ Inorganic phosphate and 28300000 pmol/ Inorganic phosphate and 33700000 pmol/ Inorganic phosphate
